Laboratory results from patent US20250108038A1 (priority 2023, published 2025).
Entries after “also recorded” stand apart in the source; their conditions may differ.

Experiments:
[1] = Stability in components of rat blood; format: in vitro ADME; conditions: 0.5 mM, 37° C., 0-120 min
Method: FIG. 5A. […] Compound I-19 in components of rat blood. Red blood cells and plasma were isolated from whole blood. […] Values represent mean+SEM of n=3 separate experiments.
FIG. 5B. Stability of Compound I-4 in components of rat blood. Red blood cells and plasma were isolated from whole blood. […] Values represent mean+SEM of n=3 separate experiments.
Human and rat blood were centrifuged to separate out red blood cells at 1174×g for 15 min. The upper plasma level was aspirated with a micropipette and placed in a bleach solution for disposal. The RBC pellet was resuspended in sterile isotonic saline. The pellet was gently resuspended by rocking the tube. The sample was then centrifuged again to collect the RBC pellet and then resuspended and washed one more time following the same procedure. A total of three was done. Following the last wash and centrifugation, the RBCs were resuspended with PBS; and mixed by inversion. Aliquots of the resuspended and washed RBCs were then placed into 4 reaction tubes. These tubes were centrifuged to collect the RBCs. The fluid level was marked on each tube, then the supernatant was aspirated off and the cells resuspended with room temperature PBS pH 7.4 to the original mark. An aliquot of the RBC suspension was added to four sterile tubes containing PBS pH 7.4 at room temperature.
The stability of test articles in whole blood, red blood cells only, and plasma was done to determine stability in each blood compartment. 50 μL of test article was placed in each blood matrix. The final volume was 1 mL (0.5 mM). […] LCMSMS of parent compound was used to determine stability.

in vitro = conditions: for % Remaining / Aa/Ai Mean (N = 2) / T1/2: 2.0 μM; for T1/2: 60 min incubation
OATP1B1 = target: T1, OATP1B1 (Homo sapiens, UniProt Q9Y6L6); test: Uptake transporter inhibition assay, OATP1B1 (estradiol-17-β-glucuronide); conditions: for Maximum % inhibition: OATP1B1, HEK293 cells, E217βG (1 μM), NIO: no inhibition observed
T1 sequence (Q9Y6L6 1-691): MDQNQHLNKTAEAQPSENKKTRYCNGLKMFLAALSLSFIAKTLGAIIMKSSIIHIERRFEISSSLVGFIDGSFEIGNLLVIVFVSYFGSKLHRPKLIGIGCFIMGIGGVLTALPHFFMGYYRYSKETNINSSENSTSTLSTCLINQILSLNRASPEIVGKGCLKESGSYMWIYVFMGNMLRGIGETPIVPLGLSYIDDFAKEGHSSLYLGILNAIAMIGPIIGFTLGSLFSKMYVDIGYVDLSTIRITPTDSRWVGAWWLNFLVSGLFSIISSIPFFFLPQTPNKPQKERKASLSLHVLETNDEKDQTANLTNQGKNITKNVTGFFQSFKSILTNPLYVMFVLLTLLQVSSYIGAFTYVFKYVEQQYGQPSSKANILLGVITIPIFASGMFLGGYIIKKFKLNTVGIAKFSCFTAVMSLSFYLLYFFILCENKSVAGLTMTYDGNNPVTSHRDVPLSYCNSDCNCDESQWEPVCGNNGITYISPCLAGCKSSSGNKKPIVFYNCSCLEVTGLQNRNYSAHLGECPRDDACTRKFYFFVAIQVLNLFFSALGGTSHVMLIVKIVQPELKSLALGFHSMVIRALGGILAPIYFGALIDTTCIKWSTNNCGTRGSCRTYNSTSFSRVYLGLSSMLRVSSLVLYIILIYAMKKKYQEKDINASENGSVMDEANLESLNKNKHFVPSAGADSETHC
Method: Uptake experiments were performed using HEK293 cells stably expressing the respective uptake transporters. The assays were conducted according to the actual SOLVO uptake transporter assay protocols (PR-ASY-UPT-General Protocol for Uptake Transporter Inhibition Assays).
Cells were cultured at 37° C. in a humidified atmosphere containing 5% CO2 and were plated onto standard 96-well tissue culture plates.
Before the experiment, the medium was removed, and the cells were washed twice with 100 μL of pre-warmed (37° C.) assay buffer listed in Table 15. The cells were pre-incubated at 37° C. for 30 minutes in assay buffer containing the test article at appropriate concentrations (Table 16), appropriate solvents for solvent controls and the reference inhibitor for reference inhibitor wells. After the pre-incubation step solutions were removed. Uptake experiments were performed at 37° C. in 50 μL of assay buffer containing the probe substrate and the test article or solvent and controls.
After the experiment, cells were washed twice with 100 μL of appropriate cold buffer and lysed with 150 μL scintillation cocktail. Radiolabeled probe substrate transport was determined by liquid scintillation counting.
Uptake of the probe substrate in control cells provided background activity values for all data points.

[2] = 0.14 μM nominal, 0.09 μM NSB corrected, follow-up assay
[3] = 1.24 μM nominal, 0.86 μM NSB corrected, follow-up assay
[4] = 10.00 μM nominal, 6.60 μM NSB corrected
[5] = 11.11 μM nominal, 7.89 μM NSB corrected, follow-up assay
[6] = 33.33 μM nominal, 24.33 μM NSB corrected, follow-up assay
[7] = 100.00 μM nominal, 77.00 μM NSB corrected
[8] = 100.00 μM nominal, 100.00 μM NSB corrected, follow-up assay
[9] = 2-concentration assay, up to 100 μM (Compound A up to 30 μM)
[10] = […] nominal, 1.89 μM NSB corrected, follow-up assay

In the case of `COCCOC1(c2ccc(Cl)cc2)c2ccccc2C2=NCCN21` (centres unmarked) [Compound I-4], the “% parent compound remaining” value ([1]; rat plasma) is reported as “no significant change in the amount of parent compound”, the “% parent compound remaining” value ([1]; rat red blood cells) is reported as “small time-dependent decrease in the amount of parent compound remaining” and the “% parent compound remaining” value ([1]; rat whole blood) is reported as “small time-dependent decrease in the amount of parent compound remaining”. The “Compound A formed (Aa/Ai)” value (in vitro; 0 min) was 0.55, the “% Remaining” value (in vitro; 0 min) was 100% and the “Aa/Ai Mean (N = 2)” value (in vitro; 0 min) was 3.23. For the same molecule, the “% Remaining” value (in vitro; 5 min) was 105%, the “Aa/Ai Mean (N = 2)” value (in vitro; 5 min) was 3.39 and the “% Remaining” value (in vitro; 15 min) was 107%. The “Aa/Ai Mean (N = 2)” value (in vitro; 15 min) was 3.46, the “% Remaining” value (in vitro; 30 min) was 101% and the “Aa/Ai Mean (N = 2)” value (in vitro; 30 min) was 3.27. For the same molecule, the “% Remaining” value (in vitro; 60 min) was 92.6%, the “Aa/Ai Mean (N = 2)” value (in vitro; 60 min) was 2.99 and the T1/2 (in vitro) was greater than 3.12 h. For the same molecule, the “Compound A formed (Aa/Ai)” value (in vitro; 5 min) was 0.61, the “Compound A formed (Aa/Ai)” value (in vitro; 15 min) was 0.60 and the “Compound A formed (Aa/Ai)” value (in vitro; 30 min) was 0.53. For the same molecule, the “Compound A formed (Aa/Ai)” value (in vitro; 60 min) was 0.42.

In the case of `Clc1ccc(C2(OCC3OCCO3)c3ccccc3C3=NCCN32)cc1` (centres unmarked) [Compound I-19], the “% parent compound remaining” value ([1]; rat plasma) is reported as “small time-dependent decrease in the amount of parent compound present”, the “% parent compound remaining” value ([1]; rat red blood cells) is reported as “small time-dependent decrease in the amount of parent compound present” and the “% parent compound remaining” value ([1]; rat whole blood) is reported as “small time-dependent decrease in the amount of parent compound present”. For the same molecule, the Relative inhibition (OATP1B1; [2]) was 0%, the “Relative transporter specific accumulation” value (OATP1B1; [2]) was 99.91 ± 3.20 % of control and the Transporter specific accumulation (OATP1B1; [2]) was 2,252.33 ± 16.07 cpm. The Relative inhibition (OATP1B1; [3]) was 3%, the “Relative transporter specific accumulation” value (OATP1B1; [3]) was 96.63 ± 3.76 % of control and the Transporter specific accumulation (OATP1B1; [3]) was 2,178.33 ± 50.48 cpm. For the same molecule, the Relative inhibition (OATP1B1; [4]) was 25%, the “Relative transporter specific accumulation” value (OATP1B1; [4]) was 75.21 ± 2.39 % of control and the Transporter specific accumulation (OATP1B1; [4]) was 2,303.00 ± 45.84 cpm. The Relative inhibition (OATP1B1; [5]) was 23%, the “Relative transporter specific accumulation” value (OATP1B1; [5]) was 77.32 ± 2.52 % of control and the Transporter specific accumulation (OATP1B1; [5]) was 1,743.00 ± 16.09 cpm. The Relative inhibition (OATP1B1; [6]) was 50%, the “Relative transporter specific accumulation” value (OATP1B1; [6]) was 49.83 ± 2.48 % of control and the Transporter specific accumulation (OATP1B1; [6]) was 1,123.33 ± 43.53 cpm. The Relative inhibition (OATP1B1; [7]) was 87%, the “Relative transporter specific accumulation” value (OATP1B1; [7]) was 12.92 ± 0.41 % of control and the Transporter specific accumulation (OATP1B1; [7]) was 395.67 ± 8.05 cpm. The Relative inhibition (OATP1B1; [8]) was 83%, the “Relative transporter specific accumulation” value (OATP1B1; [8]) was 16.93 ± 0.58 % of control and the Transporter specific accumulation (OATP1B1; [8]) was 381.67 ± 5.50 cpm. For the same molecule, the “maximum inhibition of OATP1B1-mediated E217βG accumulation” value (shortened to “maximum inhibition”) (OATP1B1; [9]) was 87%, the Maximum % inhibition (OATP1B1) was 83% and the Relative inhibition (OATP1B1; [10]) was 5%. The “Relative transporter specific accumulation” value (OATP1B1; [10]) was 95.49 ± 3.39 % of control, the Transporter specific accumulation (OATP1B1; [10]) was 2,152.67 ± 36.09 cpm and the “maximum inhibition” value (OATP1B1; follow-up assay) was 83%. The IC50 (OATP1B1; follow-up assay, NSB-corrected concentrations) was 31.4 µM, the “Compound A formed (Aa/Ai)” value (in vitro; 0 min) was 0.63 and the “% Remaining” value (in vitro; 0 min) was 100%. The “Aa/Ai Mean (N = 2)” value (in vitro; 0 min) was 1.80, the “% Remaining” value (in vitro; 5 min) was 97.6% and the “Aa/Ai Mean (N = 2)” value (in vitro; 5 min) was 1.76. The “% Remaining” value (in vitro; 15 min) was 97.2%, the “Aa/Ai Mean (N = 2)” value (in vitro; 15 min) was 1.75 and the “% Remaining” value (in vitro; 30 min) was 93.9%. The “Aa/Ai Mean (N = 2)” value (in vitro; 30 min) was 1.69, the “Aa/Ai Mean (N = 2)” value (in vitro; 60 min) was 1.25 and the T1/2 (in vitro) was 1.95 h. The “Compound A formed (Aa/Ai)” value (in vitro; 5 min) was 0.65, the “Compound A formed (Aa/Ai)” value (in vitro; 15 min) was 0.63 and the “Compound A formed (Aa/Ai)” value (in vitro; 30 min) was 0.53. For the same molecule, the “Compound A formed (Aa/Ai)” value (in vitro; 60 min) was 0.38.

In the case of `OC1(c2ccc(Cl)cc2)c2ccccc2C2=NCCN21` (centres unmarked) [Compound A, 5-(4-chlorophenyl)-2,3-dihydroimidazo[1,2-b]isoindol-5-ol, reference compound], the “Relative transporter specific accumulation” value (OATP1B1; 3.00 μM nominal, E217βG, Table 119) is reported as 96.77 ± 2.48 % of control, the “Relative transporter specific accumulation” value (OATP1B1; 30.00 μM nominal, E217βG, Table 119) is reported as 94.38 ± 2.14 % of control and the “maximum inhibition” value (OATP1B1; [9]) is reported as “did not inhibit; also recorded: not an in vitro inhibitor”. The Maximum % inhibition (OATP1B1) was “NIO”, the inhibition at 3 μM (OATP1B1; human) was 3% and the inhibition at 30 μM (OATP1B1; human) was 6%.
